Reference: US20090203763A1, “SUBSTITUTED BENZHYDRYLETHERS” (AUSPEX PHARMACEUTICALS, INC., priority 2008, published 2009)

Columns and labels:
[1] = after both one-time and repeated (daily) administration; Verster et al. 2004; cited from earlier work
[2] = In vitro human liver microsomal (HLM) stability assay; format: in vitro ADME; details: human liver microsomes 1 mg per mL protein, 1 μM compound, about 37° C.; as compared to the non-isotopically enriched drug
Experimental: Liver microsomal stability assays were conducted at 1 mg per mL liver microsome protein with an NADPH-generating system in 2% NaHCO3 (2.2 mM NADPH, 25.6 mM glucose 6-phosphate, 6 units per mL glucose 6-phosphate dehydrogenase and 3.3 mM MgCl2). Test compounds were prepared as solutions in 20% acetonitrile-water and added to the assay mixture (final assay concentration 1 μM) and incubated at about 37° C. Final concentration of acetonitrile in the assay should be <1%. Aliquots (50 μL) were taken out at times 0, 0.25, […], and 1 hours, and diluted with ice cold acetonitrile (200 μL) to stop the reactions. Samples were centrifuged at 12,000 RPM for about 10 min to precipitate proteins. Supernatants were transferred to micro centrifuge tubes and stored for LC/MS/MS analysis of the degradation half-life of the test compounds.
Results of In Vitro Human Liver Microsomal (HLM) Stability Assay—Percent Change in Degradation Half-Life

## CN1CCC[C@@H]1CCO[C@](C)(c1ccccc1)c1ccc(Cl)cc1 [Clemastine, 2-[2-[1-(4-chlorophenyl)-1-phenyl-ethoxy]ethyl]-1-methyl-pyrrolidine]
[1]
  effect on driving performance: significantly impair driving performance

## O=C(O)/C=C/C(=O)O.[2H]C([2H])([2H])N1CCC[C@@H]1CCO[C@](C)(c1ccccc1)c1ccc(Cl)cc1 [Example 4, (R)-2-[2-[(R)-1-(4-Chlorophenyl)-1-phenylethoxy]ethyl]-1-methyl-d3-pyrrolidine fumarate]
[2]
  Percent Change in Degradation Half-Life, −25%-0%: + (−25%-0%)

## O=C(O)/C=C/C(=O)O.[2H]C([2H])([2H])N1CCC[C@@H]1C([2H])([2H])C([2H])([2H])O[C@](C)(c1ccccc1)c1ccc(Cl)cc1 [Example 6, (R)-2-[2-[(R)-1-(4-Chlorophenyl)-1-phenylethoxy]ethyl-1,1,2,2-d4]-1-methyl-d3-pyrrolidine fumarate]
[2]
  Percent Change in Degradation Half-Life, 0%-50%: + (0%-50%)

## O=C(O)/C=C/C(=O)O.[2H]C([2H])(C[C@H]1CCCN1C)O[C@](C)(c1ccccc1)c1ccc(Cl)cc1 [Example 2, (R)-2-[2-[(R)-1-(4-Chlorophenyl)-1-phenylethoxy]ethyl-2,2-d2]-1-methylpyrrolidine fumarate]
[2]
  Percent Change in Degradation Half-Life, 0%-50%: + (0%-50%)

## O=C(O)/C=C/C(=O)O.[2H]C([2H])(O[C@](C)(c1ccccc1)c1ccc(Cl)cc1)C([2H])([2H])[C@H]1CCCN1C [Example 3, (R)-2-[2-[(R)-1-(4-Chlorophenyl)-1-phenylethoxy]ethyl-2,2-d4]-1-methyl-pyrrolidine fumarate]
[2]
  Percent Change in Degradation Half-Life, 0%-50%: + (0%-50%)

## O=C(O)/C=C/C(=O)O.[2H]C([2H])(C[C@H]1CCCN1C([2H])([2H])[2H])O[C@](C)(c1ccccc1)c1ccc(Cl)cc1 [Example 5, (R)-2-[2-[(R)-1-(4-Chlorophenyl)-1-phenylethoxy]ethyl-2,2-d2]-1-methyl-d3-pyrrolidine fumarate]
[2]
  Percent Change in Degradation Half-Life, −25%-0%: + (−25%-0%)
